# Experimental data reported in the supplement of paper PMC6045584.
# ± gives the standard deviation of the averaged measurements.
# What was measured:
# SAPACITABINE = compound: CCCCCCCCCCCCCCCC(=O)Nc1ccn([C@@H]2O[C@H](CO)[C@@H](O)[C@@H]2C#N)c(=O)n1 [SAPACITABINE]; assay: surviving fraction relative to DMSO-only wells; higher = less growth inhibition; conditions: exposure time: 5 days
# Outline: (§1)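 Viability was scored with CellTiter-Glo luminescence and normalised to the median of DMSO-only wells as surviving fraction. Beforehand, log-phase tumour cell lines were seeded at 250–500 cells per well in 384-well plates, allowed 24 hours, and exposed continuously for five days to inhibitors at 0.5, 1, 5, 10, 50, 100, 500 and 1000 nM. Only lines whose three screens gave replicate Pearson r >0.7 and median Z' >0.3 were kept.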
# SNX-5422 = compound: CC1(C)CC(=O)c2c(C(F)(F)F)nn(-c3ccc(C(N)=O)c(N[C@H]4CC[C@H](OC(=O)CN)CC4)c3)c2C1 [SNX-5422]; assay: as above; conditions: exposure time: 5 days
# Outline: as §1
Test System,surviving fraction (SAPACITABINE; 0.5 nM),surviving fraction (SAPACITABINE; 1 nM),surviving fraction (SAPACITABINE; 5 nM),surviving fraction (SAPACITABINE; 10 nM),surviving fraction (SAPACITABINE; 50 nM),surviving fraction (SAPACITABINE; 100 nM),surviving fraction (SAPACITABINE; 500 nM),surviving fraction (SAPACITABINE; 1000 nM),surviving fraction (SNX-5422; 0.5 nM),surviving fraction (SNX-5422; 1 nM),surviving fraction (SNX-5422; 5 nM),surviving fraction (SNX-5422; 10 nM),surviving fraction (SNX-5422; 50 nM),surviving fraction (SNX-5422; 100 nM),surviving fraction (SNX-5422; 500 nM),surviving fraction (SNX-5422; 1000 nM)
KPD BONE,0.887 ± 0.013,0.886 ± 0.043,0.977 ± 0.045,0.946 ± 0.1,0.926 ± 0.024,0.815 ± 0.013,0.52 ± 0.028,0.344 ± 0.017,1 ± 0.015,1.03 ± 0.07,1.02 ± 0.054,0.954 ± 0.026,0.265 ± 0.0056,0.109 ± 0.004,0.0673 ± 0.0015,0.0643 ± 0.0067
NOS1 BONE,0.853 ± 0.16,0.774 ± 0.081,0.938 ± 0.16,0.863 ± 0.062,0.968 ± 0.12,0.973 ± 0.13,0.811 ± 0.059,0.764 ± 0.14,1.1 ± 0.11,1.08 ± 0.052,1.16 ± 0.067,0.947 ± 0.056,0.451 ± 0.037,0.276 ± 0.012,0.113 ± 0.0076,0.117 ± 0.014
MHM BONE,0.975 ± 0.036,0.97 ± 0.058,0.978 ± 0.034,0.996 ± 0.028,0.951 ± 0.027,0.789 ± 0.043,0.305 ± 0.012,0.262 ± 0.03,1.01 ± 0.018,1.04 ± 0.015,1.04 ± 0.023,1.06 ± 0.013,1.02 ± 0.015,0.635 ± 0.047,0.186 ± 0.0096,0.149 ± 0.0076
G292 BONE,0.947 ± 0.056,0.955 ± 0.026,0.927 ± 0.059,0.899 ± 0.061,0.618 ± 0.028,0.482 ± 0.012,0.326 ± 0.011,0.299 ± 0.0036,1.01 ± 0.014,0.952 ± 0.055,1.02 ± 0.033,0.994 ± 0.034,0.366 ± 0.017,0.287 ± 0.028,0.081 ± 0.0089,0.0853 ± 0.012
PCI30 HEADNECK,0.899 ± 0.053,0.916 ± 0.046,0.946 ± 0.039,0.984 ± 0.051,0.965 ± 0.027,0.801 ± 0.023,0.555 ± 0.028,1.05 ± 0.13,1.08 ± 0.073,1.06 ± 0.086,1.13 ± 0.041,1.17 ± 0.14,0.716 ± 0.05,0.316 ± 0.065,0.0417 ± 0.0046,0.039 ± 0.001
93VU HEADNECK,0.75 ± 0.041,0.764 ± 0.051,0.862 ± 0.059,0.849 ± 0.16,1.02 ± 0.026,0.927 ± 0.049,0.74 ± 0.086,0.611 ± 0.017,1.14 ± 0.02,1.15 ± 0.029,1.31 ± 0.069,1.24 ± 0.085,0.648 ± 0.074,0.199 ± 0.041,0.0953 ± 0.0047,0.0957 ± 0.012
22RV1 PROSTATE,0.89 ± 0.094,1.06 ± 0.16,0.894 ± 0.042,0.8687 ± 0.0045,0.746 ± 0.12,0.692 ± 0.099,0.333 ± 0.029,0.199 ± 0.034,1.06 ± 0.047,1.11 ± 0.056,1.06 ± 0.037,0.941 ± 0.056,0.169 ± 0.018,0.13 ± 0.022,0.0763 ± 0.014,0.0823 ± 0.0091
MFM223 BREAST,0.839 ± 0.092,0.82 ± 0.11,0.83 ± 0.089,0.8 ± 0.045,0.933 ± 0.12,0.939 ± 0.026,0.903 ± 0.074,0.77 ± 0.1,1.16 ± 0.032,1.1 ± 0.029,1.06 ± 0.025,1.08 ± 0.074,0.254 ± 0.014,0.152 ± 0.016,0.111 ± 0.0051,0.116 ± 0.0013
HU09 BONE,0.854 ± 0.062,0.812 ± 0.027,0.97 ± 0.061,0.882 ± 0.018,0.857 ± 0.021,0.537 ± 0.042,0.0813 ± 0.0049,0.0557 ± 0.0035,1.02 ± 0.032,0.991 ± 0.095,1.03 ± 0.15,0.701 ± 0.017,0.0323 ± 0.0029,0.023 ± 0.0017,0.0257 ± 0.0021,0.03 ± 0.002
H23 LUNG,0.891 ± 0.02,0.894 ± 0.025,0.916 ± 0.028,0.924 ± 0.015,0.868 ± 0.051,0.668 ± 0.024,0.301 ± 0.013,0.264 ± 0.014,1.01 ± 0.051,1.04 ± 0.023,1.06 ± 0.057,1.04 ± 0.052,0.43 ± 0.0053,0.268 ± 0.013,0.037 ± 0.0027,0.0373 ± 0.0035
YAMATO SYNOVIAL,0.776 ± 0.044,0.446 ± 0.029,0.684 ± 0.053,0.11 ± 0.0083,1.04 ± 0.062,0.511 ± 0.021,0.402 ± 0.01,0.0903 ± 0.0049,1.2 ± 0.21,1.15 ± 0.13,1.23 ± 0.096,1.17 ± 0.086,0.971 ± 0.21,0.339 ± 0.031,0.318 ± 0.028,0.382 ± 0.031
SCC003 HEADNECK,0.85 ± 0.04,0.797 ± 0.068,0.885 ± 0.028,0.784 ± 0.047,1.05 ± 0.041,0.879 ± 0.026,0.481 ± 0.003,0.339 ± 0.014,1.16 ± 0.017,1.15 ± 0.12,1.16 ± 0.081,1.13 ± 0.054,0.608 ± 0.023,0.384 ± 0.091,0.0973 ± 0.004,0.0767 ± 0.0055
VP229 BREAST,0.763 ± 0.17,0.668 ± 0.054,0.686 ± 0.11,0.643 ± 0.084,1 ± 0.14,0.835 ± 0.12,0.69 ± 0.099,0.669 ± 0.083,1.286 ± 0.012,1.15 ± 0.17,1.12 ± 0.08,1.03 ± 0.16,0.612 ± 0.034,0.628 ± 0.1,0.0873 ± 0.019,0.088 ± 0.011
LM7 BONE,0.703 ± 0.044,0.708 ± 0.036,0.761 ± 0.015,0.641 ± 0.077,0.599 ± 0.037,0.4143 ± 0.0032,0.191 ± 0.036,0.162 ± 0.021,1 ± 0.11,0.896 ± 0.075,0.946 ± 0.059,0.904 ± 0.077,0.294 ± 0.028,0.176 ± 0.0099,0.0897 ± 0.0035,0.0873 ± 0.01
SNU475 LIVER,0.888 ± 0.063,0.726 ± 0.057,0.83 ± 0.03,0.365 ± 0.03,0.962 ± 0.057,0.745 ± 0.025,0.573 ± 0.016,0.291 ± 0.015,1.024 ± 0.0066,1.05 ± 0.045,1.06 ± 0.016,1.01 ± 0.068,0.565 ± 0.033,0.358 ± 0.011,0.245 ± 0.014,0.234 ± 0.012
SUM149.B1*.S BREAST,0.918 ± 0.067,0.792 ± 0.011,0.888 ± 0.01,0.455 ± 0.022,0.839 ± 0.023,0.567 ± 0.066,0.281 ± 0.022,0.428 ± 0.022,1.06 ± 0.037,1.12 ± 0.032,1.09 ± 0.021,1.08 ± 0.037,0.385 ± 0.022,0.226 ± 0.017,0.0997 ± 0.0045,0.0978 ± 0.0067
